Laboratory results published in patent US12174198B2, “Methods of characterizing condensate-associated characteristics of compounds and uses thereof” (Dewpoint Therapeutics, Inc., priority 2019, dated 2024).

What was measured:
Type in all cases: physicochemical
[1] = target: T1, FUS-SNAP condensates (Homo sapiens, UniProt P35637); test: Fluorescence imaging of dye partitioning in FUS-SNAP condensates (I-in, I-out); conditions: for Ratio of intensity inside:outside FUS-SNAP Condensates Day 1 / Ratio of intensity inside:outside FUS-SNAP Condensates Day 2 / Ratio of intensity inside:outside FUS-SNAP Condensates Average: I-in:I-out; for Ratio of intensity inside:outside FUS-SNAP Condensates Day 1 / Ratio of intensity inside:outside FUS-SNAP Condensates Day 2 / Ratio of intensity inside:outside FUS-SNAP Condensates Average / Intensity Inside with Dye Average / Intensity Inside with Dye 1 / Intensity Inside with Dye 2 / Intensity Inside with Dye 3 / Intensity Outside with Dye Average / Intensity Outside with Dye 1 / Intensity Outside with Dye 2 / Intensity Outside with Dye 3: 10 μM dye; for Ratio of intensity inside:outside FUS-SNAP Condensates Average: average of two days; for Intensity Inside with Dye Average / Intensity Inside with Dye 1 / Intensity Inside with Dye 2 / Intensity Inside with Dye 3 / Intensity Inside Dye-No Dye: inside FUS-SNAP condensate; for Intensity Inside with Dye Average / Intensity Inside with Dye 1 / Intensity Inside with Dye 2 / Intensity Inside with Dye 3 / Intensity Outside with Dye Average / Intensity Outside with Dye 1 / Intensity Outside with Dye 2 / Intensity Outside with Dye 3: 5 μM protein; for Intensity Inside with Dye Average / Intensity Outside with Dye Average: average of three images; for Intensity Inside with Dye Average / Intensity Inside with Dye 1 / Intensity Inside with Dye 2 / Intensity Inside with Dye 3 / Intensity Inside Dye-No Dye / Intensity Outside with Dye Average / Intensity Outside with Dye 1 / Intensity Outside with Dye 2 / Intensity Outside with Dye 3 / Intensity Outside (Dye-No Dye): one day of experiments; for Intensity Inside with Dye 1 / Intensity Outside with Dye 1: image 1; for Intensity Inside with Dye 2 / Intensity Outside with Dye 2: image 2; for Intensity Inside with Dye 3 / Intensity Outside with Dye 3: image 3; for Intensity Inside Dye-No Dye / Intensity Outside (Dye-No Dye): background corrected; for Intensity Outside with Dye Average / Intensity Outside with Dye 1 / Intensity Outside with Dye 2 / Intensity Outside with Dye 3 / Intensity Outside (Dye-No Dye): outside FUS-SNAP condensate
T1 sequence (P35637 1-526): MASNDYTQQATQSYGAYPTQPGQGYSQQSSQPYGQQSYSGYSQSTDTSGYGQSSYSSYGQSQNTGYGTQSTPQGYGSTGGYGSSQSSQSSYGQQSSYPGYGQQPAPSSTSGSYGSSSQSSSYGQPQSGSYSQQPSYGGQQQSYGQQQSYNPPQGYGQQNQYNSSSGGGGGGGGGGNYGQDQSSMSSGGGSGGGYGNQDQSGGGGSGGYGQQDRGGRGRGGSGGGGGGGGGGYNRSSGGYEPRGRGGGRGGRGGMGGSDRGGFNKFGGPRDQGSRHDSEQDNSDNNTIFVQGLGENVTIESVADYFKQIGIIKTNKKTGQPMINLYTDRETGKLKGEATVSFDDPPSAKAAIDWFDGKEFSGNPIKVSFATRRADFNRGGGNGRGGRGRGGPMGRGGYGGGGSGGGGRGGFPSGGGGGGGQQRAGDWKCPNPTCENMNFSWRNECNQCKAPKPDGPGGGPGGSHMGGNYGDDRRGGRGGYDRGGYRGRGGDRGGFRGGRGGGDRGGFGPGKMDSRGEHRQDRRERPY
Description: (§1) All dye-stocks were stored as 1 mM solutions in 100% DMSO. The dyes were dissolved in dilution buffer (DB: 14.7 mM Tris, pH 7.25, 1 mM DTT) to yield 11.765 μM dye in 1.1765 DMSO. 17 μl of dye was distributed in a 384 well non-binding plate (Greiner).
(§2) Either SNAP-tagged FUS protein or tag-free PGL-3 protein was thawed at room temperature for at least 10 min, and the buffer was exchanged to partitioning buffer (PB: 50 mM Tris pH 7.25, 500 mM KCl, 5% Glycerol, and 1 mM DTT). The protein was then diluted to 33.3 μM in PB. 3 μl of protein solution were added to the 384 well plate to initiate phase separation, yielding 20 μl of 5 μM protein and 10 μM dye in 75 mM KCl, 0.75% Glycerol, 20 mM Tris, 1 mM DTT, and 1% DMSO or for no dye control reactions, 20 μl of 5 μM protein in 75 mM KCl, 0.75% Glycerol, 20 mM Tris, 1 mM DTT.
(§3) A spinning disk confocal microscope was used to acquire images of the samples. A 60×oil high-NA objective lens was used to capture the condensate droplets. The laser power was set to 20% and the exposure times were adjusted to the fluorescence emission intensity specific for each dye. Exposure times ranged from 1-1000 ms. Appropriate filter settings were used, matching the excitation and emission spectra of the respective dyes. Three images per well were taken. The background signal of protein droplets in the absence of dye was recorded for all applied imaging conditions.
(§4) Fluorescence intensity was measured inside one exemplary target condensate (Intensity inside, I-in) per image and in a region next to the exemplary target condensate (Intensity outside, I-out) by hand using the image analysis software Fiji. An example depicting the regions measured is shown FIG. 2A. Three I-in and three I-out values were measured in total for each dye in each experiment and were averaged. The measured I-in and I-out values for FUS-SNAP condensates on one day of experiments are shown in Table 2 and Table 3, respectively. The measured I-in and I-out values for PGL-3 condensates on one day of experiments are shown in Table 4 and Table 5, respectively. All values were background corrected, based on the background images (no dye controls) taken with the same microscope conditions.
(§5) The ratios of the average intensity measured in the target condensates and outside of the target condensates were calculated by dividing I-in by I-out, although dividing I-out by I-in could also have been used. The I-in:I-out ratios determined from the two different days of experiments were then averaged. The average I-in:I-out ratios for FUS-SNAP condensates are shown in FIG. 3 and the average I-in:I-out ratios for PGL-3 condensates are shown in FIG. 4. The standard deviation between the two experiments is represented by the error bars in FIG. 3 and FIG. 4.

[2] = target: T2, PGL-3 condensates (Caenorhabditis elegans, UniProt G5EBV6); test: Fluorescence imaging of dye partitioning in PGL-3 condensates (I-in, I-out); conditions: for Ratio of intensity inside:outside PGL-3 Condensates Day 1 / Ratio of intensity inside:outside PGL-3 Condensates Day 2 / Ratio of intensity inside:outside PGL-3 Condensates Average: I-in:I-out; for Ratio of intensity inside:outside PGL-3 Condensates Day 1 / Ratio of intensity inside:outside PGL-3 Condensates Day 2 / Ratio of intensity inside:outside PGL-3 Condensates Average / Intensity Inside with Dye Average / Intensity Inside with Dye 1 / Intensity Inside with Dye 2 / Intensity Inside with Dye 3 / Intensity Outside with Dye Average / Intensity Outside with Dye 1 / Intensity Outside with Dye 2 / Intensity Outside with Dye 3: 10 μM dye; for Ratio of intensity inside:outside PGL-3 Condensates Average: average of two days; for Intensity Inside with Dye Average / Intensity Inside with Dye 1 / Intensity Inside with Dye 2 / Intensity Inside with Dye 3 / Intensity Inside Dye-No Dye: inside PGL-3 condensate; for Intensity Inside with Dye Average / Intensity Inside with Dye 1 / Intensity Inside with Dye 2 / Intensity Inside with Dye 3 / Intensity Outside with Dye Average / Intensity Outside with Dye 1 / Intensity Outside with Dye 2 / Intensity Outside with Dye 3: 5 μM protein; for Intensity Inside with Dye Average / Intensity Outside with Dye Average: average of three images; for Intensity Inside with Dye Average / Intensity Inside with Dye 1 / Intensity Inside with Dye 2 / Intensity Inside with Dye 3 / Intensity Inside Dye-No Dye / Intensity Outside with Dye Average / Intensity Outside with Dye 1 / Intensity Outside with Dye 2 / Intensity Outside with Dye 3 / Intensity Outside (Dye-No Dye): one day of experiments; for Intensity Inside with Dye 1 / Intensity Outside with Dye 1: image 1; for Intensity Inside with Dye 2 / Intensity Outside with Dye 2: image 2; for Intensity Inside with Dye 3 / Intensity Outside with Dye 3: image 3; for Intensity Inside Dye-No Dye / Intensity Outside (Dye-No Dye): background corrected; for Intensity Outside with Dye Average / Intensity Outside with Dye 1 / Intensity Outside with Dye 2 / Intensity Outside with Dye 3 / Intensity Outside (Dye-No Dye): outside PGL-3 condensate
T2 sequence (G5EBV6 1-693): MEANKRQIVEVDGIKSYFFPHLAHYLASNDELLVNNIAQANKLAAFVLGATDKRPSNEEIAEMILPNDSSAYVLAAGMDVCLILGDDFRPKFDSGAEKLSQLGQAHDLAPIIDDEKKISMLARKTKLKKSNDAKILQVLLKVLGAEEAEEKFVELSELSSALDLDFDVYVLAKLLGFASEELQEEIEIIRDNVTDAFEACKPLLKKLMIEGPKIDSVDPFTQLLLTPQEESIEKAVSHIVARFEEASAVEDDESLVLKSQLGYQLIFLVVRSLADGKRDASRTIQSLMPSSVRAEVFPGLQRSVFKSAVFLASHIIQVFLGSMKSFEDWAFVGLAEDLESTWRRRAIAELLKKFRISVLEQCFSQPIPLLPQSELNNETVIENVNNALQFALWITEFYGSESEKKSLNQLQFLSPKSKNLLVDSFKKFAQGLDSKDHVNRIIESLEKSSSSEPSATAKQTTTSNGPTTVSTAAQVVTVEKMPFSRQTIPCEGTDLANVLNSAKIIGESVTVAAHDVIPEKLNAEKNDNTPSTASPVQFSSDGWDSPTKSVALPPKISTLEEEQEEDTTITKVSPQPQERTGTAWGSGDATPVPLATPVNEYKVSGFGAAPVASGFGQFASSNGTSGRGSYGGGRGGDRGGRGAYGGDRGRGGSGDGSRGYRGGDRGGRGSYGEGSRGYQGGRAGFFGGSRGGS
Description: as §1, §2, §3, §4, §5

[3] = test system: FUS-SNAP condensates versus PGL-3 condensates; test: Condensate preference: ratio of FUS-SNAP I-in:I-out to PGL-3 I-in:I-out; conditions: average FUS-SNAP I-in:I-out divided by average PGL-3 I-in:I-out
Description: as §5

Ratio of intensity inside:outside FUS-SNAP Condensates Day 1 [1]	Ratio of intensity inside:outside FUS-SNAP Condensates Day 2 [1]	Ratio of intensity inside:outside FUS-SNAP Condensates Average [1]	Intensity Inside with Dye Average [1]	Intensity Inside with Dye 1 [1]	Intensity Inside with Dye 2 [1]	Intensity Inside with Dye 3 [1]	Intensity Inside Dye-No Dye [1]	Intensity Outside with Dye Average [1]	Intensity Outside with Dye 1 [1]	Intensity Outside with Dye 2 [1]	Intensity Outside with Dye 3 [1]	Intensity Outside (Dye-No Dye) [1]	Ratio of intensity inside:outside PGL-3 Condensates Day 1 [2]	Ratio of intensity inside:outside PGL-3 Condensates Day 2 [2]	Ratio of intensity inside:outside PGL-3 Condensates Average [2]	Intensity Inside with Dye Average [2]	Intensity Inside with Dye 1 [2]	Intensity Inside with Dye 2 [2]	Intensity Inside with Dye 3 [2]	Structure (SMILES)	also measured
4.6	3.3	4.0	622.4	638.5	599.9	628.8	502.4	228.6	233.9	233.3	218.7	108.6	1.9	3.3	2.6	212.6	211.3	211.0	215.7	N=C(N)c1ccc(-c2cc3ccc(C(=N)N)cc3[nH]2)cc1 [Dye 1, DAPI]	Intensity Inside Dye-No Dye [2]: 91.9; Intensity Outside with Dye Average [2]: 168.8; Intensity Outside with Dye 1 [2]: 173.1; Intensity Outside with Dye 2 [2]: 168.4; Intensity Outside with Dye 3 [2]: 164.9; Intensity Outside (Dye-No Dye) [2]: 48.4; Ratio of FUS-SNAP:PGL-3 [3]: 1.5
1.2	1.4	1.3	1896.7	2046.8	2005.1	1638.1	1399.1	1272.5	1319.4	1306.9	1191.0	1132.4	1.0	1.1	1.1	1834.5	1912.6	1794.0	1797.0	CC(=O)N[C@H]1[C@H](Oc2ccc3c(c2)Oc2cc(O)ccc2C32OC(=O)c3ccccc32)O[C@H](CO)[C@H](O)[C@@H]1O (stereo partly drawn) [Dye 5, Fluorescein mono-(N-acetyl-β-D-galactosaminide)]	Intensity Inside Dye-No Dye [2]: 1237.3; Intensity Outside with Dye Average [2]: 1392.9; Intensity Outside with Dye 1 [2]: 1439.0; Intensity Outside with Dye 2 [2]: 1386.2; Intensity Outside with Dye 3 [2]: 1353.5; Intensity Outside (Dye-No Dye) [2]: 1230.0; Ratio of FUS-SNAP:PGL-3 [3]: 1.3
